Results as given in PubChem BioAssay AID1963966 (Molecular Pharmacology Branch, DTP, NCI, 2024).

System: 935938-334-R-J1-PDC spheroids with HUVEC/MSC, viability
Assay: Anticancer human tumor 935938-334-R-J1-PDC patient-derived small intestine adenocarcinoma cell line growth inhibition [PI3K]
Details: for IC50: curve of first compound; for viability, T/C: stronger effect = lower value
Description: Combinatorial screen of targeted agents with the PI3K inhibitors inavolisib, alpelisib, duvelisib, and copanlisib in multi-cell type tumor spheroids
A high-throughput screen of multi-cell type tumor spheroids was designed to identify active combinations of targeted small molecules and PI3K pathway inhibitors. Complex spheroids include a stromal component modeled by human endothelial cells (HUVEC) and fibroblasts modeled by human mesenchymal stem cells (MSCs). The concentration ranges selected for each drug and investigational agent were based upon clinically achievable concentrations if the clinical Cmax of the agent was known.
Compounds. The drugs and investigational agents: inavolisib (NSC800729), alpelisib (NSC765974), duvelisib (NSC772469), copanlisib (NSC816437), ipatasertib (NSC767898), afuresertib (NSC778305), talazoparib (NSC767125), sapanisertib (NSC764658), selumetinib (NSC741078), tovorafenib (DAY101, NSC766906), vemurafenib (NSC761431), ravoxertinib (NSC781343), sotorasib (NSC818433), MRTX1133 (NSC 836407), abemaciclib (NSC 768073), palbociclib (NSC758247), venetoclax (NSC 766270), SY5609 (NSC837396), enzalutamide (NSC755605), and darolutamide (NSC825331), were obtained from the National Cancer Institute (NCI) Developmental Therapeutics Program Chemical Repository. The FDA-approved anticancer drug set is available from the NCI Developmental Therapeutics Program. […] The stock solutions were prepared in dimethyl sulfoxide (DMSO, Sigma-Aldrich, St. Louis, MO, cat. D2650) at 800-fold the tested concentration and stored at -70 degrees C prior to their use. All drugs and investigational agents were tested over a range starting from a high concentration at or near the clinical Cmax and decreasing in half-log increments. If the clinical Cmax for an agent had not been determined, the highest concentration tested was 10 microM.
Cell Culture. All cells were maintained in an incubator at 37 degrees C and 5% CO2 with 95% humidity. The PDC lines were cultured according to standard operating procedures established by the NCI PDMR (https://pdmr.cancer.gov/sops/default.htm). All PDCs were thawed and cultured in Matrigel-coated flasks prepared with a working solution of 1X Ham's F-12 nutrient mix, without supplementation (Invitrogen, Waltham, MA, cat. 11765054), 100 U/mL penicillin-streptomycin (Invitrogen, cat. 15140122), and 2.5% Matrigel (Corning Inc., Corning, NY, cat. 354248) for the first three passages. The 354836-022-R-J1-PDC, 475296-252-R-J1-PDC, and 997726-040-R-J2-PDC lines were cultured in 6A media, which includes advanced DMEM/F-12 (Thermo Fisher Scientific, cat. 12634028), 10 mM HEPES (Thermo Fisher Scientific, cat. 15630080), 1X GlutaMAX supplement (Thermo Fisher Scientific, cat. 35050061), 0.1 mg/mL primocin (InvivoGen, San Diego, CA, cat. ant-pm-2), 10% defined fetal bovine serum, heat inactivated (HyClone Laboratories Inc., Logan, UT, cat. SH30070.03HI), 50% L-WRN conditioned media (ATCC, cat. CRL-3276), 1.25 mM N-Acetyl-L-cysteine (Sigma-Aldrich, cat. A9165), 10 mM nicotinamide (Sigma-Aldrich, cat. N0636), 1X B-27 supplement (Thermo Fisher Scientific, cat. 17504044), 1X N-2 supplement (Thermo Fisher Scientific, cat. 17502048), and 10 microM Y-27632 dihydrochloride (Tocris Bioscience, Bristol, United Kingdom, cat. 1254). The 624824-186-R-J2-PDC line was cultured in 6C/Colon 1B media, which includes all 6A media components plus 50 ng/mL human EGF recombinant protein (Thermo Fisher Scientific, cat. PHG0311). […]

[1] = second compound 0.00316 µM, first compound 0.00316 µM
[2] = second compound 0.00316 µM, first compound 0.01 µM
[3] = second compound 0.00316 µM, first compound 0.0316 µM
[4] = second compound 0.00316 µM, first compound 0.1 µM
[5] = second compound 0.01 µM, first compound 0.00316 µM
[6] = second compound 0.01 µM, first compound 0.01 µM
[7] = second compound 0.01 µM, first compound 0.0316 µM
[8] = second compound 0.01 µM, first compound 0.1 µM
[9] = second compound 0.0316 µM, first compound 0.00316 µM
[10] = second compound 0.0316 µM, first compound 0.01 µM
[11] = second compound 0.0316 µM, first compound 0.0316 µM
[12] = second compound 0.0316 µM, first compound 0.1 µM
[13] = second compound 0.1 µM, first compound 0.00316 µM
[14] = second compound 0.1 µM, first compound 0.01 µM
[15] = second compound 0.1 µM, first compound 0.0316 µM
[16] = second compound 0.1 µM, first compound 0.1 µM
[17] = second compound 0.316 µM, first compound 0.00316 µM
[18] = second compound 0.316 µM, first compound 0.01 µM
[19] = second compound 0.316 µM, first compound 0.0316 µM
[20] = second compound 0.316 µM, first compound 0.1 µM
[21] = second compound 1 µM, first compound 0.00316 µM
[22] = second compound 1 µM, first compound 0.01 µM
[23] = second compound 1 µM, first compound 0.0316 µM
[24] = second compound 1 µM, first compound 0.1 µM
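Further: compound exposure lasted seven days before viability was read.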
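Wherever viability, T/C is given: percent of vehicle DMSO treated spheroid viability so 100% = untreated.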

Structure (SMILES): CCN1CCN(Cc2ccc(Nc3ncc(F)c(-c4cc(F)c5nc(C)n(C(C)C)c5c4)n3)nc2)CC1 + CC(Nc1ccc2c(c1)OCCn1cc(N3C(=O)OCC3C(F)F)nc1-2)C(N)=O
- IC50 (second compound 0.00316 µM): 126 nM
- IC50 (second compound 0.01 µM): 168 nM
- IC50 (second compound 0.0316 µM): 46.3 nM
- IC50 (second compound 0.1 µM): < 3.16 nM
- IC50 (second compound 0.316 µM): 32.3 nM
- IC50 (second compound 1 µM): < 3.16 nM
- viability, T/C [1]: 60.1%
- viability, T/C [2]: 67.3%
- viability, T/C [3]: 66%
- viability, T/C [4]: 49.8%
- viability, T/C (second compound 0.00316 µM, first compound 0.316 µM): 37.6%
- viability, T/C (second compound 0.00316 µM, first compound 1 µM): 18.1%
- viability, T/C [5]: 59.6%
- viability, T/C [6]: 58%
- viability, T/C [7]: 65%
- viability, T/C [8]: 64.4%
- viability, T/C (second compound 0.01 µM, first compound 0.316 µM): 35.6%
- viability, T/C (second compound 0.01 µM, first compound 1 µM): 15.5%
- viability, T/C [9]: 83.7%
- viability, T/C [10]: 68.3%
- viability, T/C [11]: 56.8%
- viability, T/C [12]: 39%
- viability, T/C (second compound 0.0316 µM, first compound 0.316 µM): 28.8%
- viability, T/C (second compound 0.0316 µM, first compound 1 µM): 19.6%
- viability, T/C [13]: 42.6%
- viability, T/C [14]: 55.9%
- viability, T/C [15]: 51.3%
- viability, T/C [16]: 45.1%
- viability, T/C (second compound 0.1 µM, first compound 0.316 µM): 28.9%
- viability, T/C (second compound 0.1 µM, first compound 1 µM): 16.2%
- viability, T/C [17]: 43%
- viability, T/C [18]: 51.5%
- viability, T/C [19]: 56%
- viability, T/C [20]: 26.8%
- viability, T/C (second compound 0.316 µM, first compound 0.316 µM): 23.3%
- viability, T/C (second compound 0.316 µM, first compound 1 µM): 14.7%
- viability, T/C [21]: 44.3%
- viability, T/C [22]: 38%
- viability, T/C [23]: 50.3%
- viability, T/C [24]: 25.4%
- viability, T/C (second compound 1 µM, first compound 0.316 µM): 22.3%
- viability, T/C (second compound 1 µM, first compound 1 µM): 20.6%

Structure (SMILES): Cn1ncnc1[C@H]1c2n[nH]c(=O)c3cc(F)cc(c23)N[C@@H]1c1ccc(F)cc1 + CC(Nc1ccc2c(c1)OCCn1cc(N3C(=O)OCC3C(F)F)nc1-2)C(N)=O
- IC50 (second compound 0.00316 µM): > 100 nM
- IC50 (second compound 0.01 µM): > 100 nM
- IC50 (second compound 0.0316 µM): > 100 nM
- IC50 (second compound 0.1 µM): > 100 nM
- IC50 (second compound 0.316 µM): > 100 nM
- IC50 (second compound 1 µM): 10 nM
- viability, T/C (second compound 0.00316 µM, first compound 0.000316 µM): 87.1%
- viability, T/C (second compound 0.00316 µM, first compound 0.001 µM): 99.8%
- viability, T/C [1]: 102%
- viability, T/C [2]: 87.2%
- viability, T/C [3]: 78.6%
- viability, T/C [4]: 78.2%
- viability, T/C (second compound 0.01 µM, first compound 0.000316 µM): 79.6%
- viability, T/C (second compound 0.01 µM, first compound 0.001 µM): 83.4%
- viability, T/C [5]: 112%
- viability, T/C [6]: 87.5%
- viability, T/C [7]: 73.7%
- viability, T/C [8]: 95.7%
- viability, T/C (second compound 0.0316 µM, first compound 0.000316 µM): 84.6%
- viability, T/C (second compound 0.0316 µM, first compound 0.001 µM): 102%
- viability, T/C [9]: 84.2%
- viability, T/C [10]: 67.9%
- viability, T/C [11]: 80.6%
- viability, T/C [12]: 103%
- viability, T/C (second compound 0.1 µM, first compound 0.000316 µM): 88.1%
- viability, T/C (second compound 0.1 µM, first compound 0.001 µM): 102%
- viability, T/C [13]: 95.3%
- viability, T/C [14]: 79.7%
- viability, T/C [15]: 93.3%
- viability, T/C [16]: 78.2%
- viability, T/C (second compound 0.316 µM, first compound 0.000316 µM): 70.5%
- viability, T/C (second compound 0.316 µM, first compound 0.001 µM): 94.3%
- viability, T/C [17]: 82.2%
- viability, T/C [18]: 91.3%
- viability, T/C [19]: 62.4%
- viability, T/C [20]: 85.8%
- viability, T/C (second compound 1 µM, first compound 0.000316 µM): 67.6%
- viability, T/C (second compound 1 µM, first compound 0.001 µM): 72%
- viability, T/C [21]: 45.1%
- viability, T/C [22]: 44.5%
- viability, T/C [23]: 61.3%
- viability, T/C [24]: 51%
